Data as given in patent US12030903B2, “Antiviral compounds” (Gilead Sciences, Inc., priority 2020, dated 2024).

Assays:
[1] = system: Dengue serotype 2 New Guinea C (NGC) strain; assay: DENV-2 Huh-7 EC50 (qPCR of viral RNA in infected Huh7 cells); assay type: cell-based; details: Dengue virus, DENV2, Huh-7, Huh7 cells infected with Dengue serotype 2 NGC, MOI=0.1, 48 hours
Method: Huh7 (Human hepatocarcinoma 7) cells were maintained in 10% FCS-containing DMEM complete media. On the day of the assay, cells were trypsinized (0.1% Trypsin-EDTA), washed and infected for 2 hours in serum-free DMEM with Dengue serotype 2 New Guinea C (NGC) strain at MOI=0.1 with gentle agitation at 37° C. After 2 hours, cells were washed with serum-free media and suspended in 10% FCS-containing DMEM (Gibco, supplemented with sodium pyruvate, NEAA, Penicillin-Streptomycin). 10^5 cells were plated in triplicate in 96-well plates with compounds dispensed at graded doses (Hewlett-Packard D300 Digital Dispenser). All wells were normalized to 0.25% DMSO. At 48 hours, cells were washed with 1× PBS and all supernatants removed. Total RNA was extracted using RNEasy 96 plates (Qiagen) and used to generate first-strand cDNA using XLT cDNA 5× Supermix (QuantaBio). cDNA was used as a template in a Taqman qPCR duplex reaction specific to DENV2 viral and GAPDH gene expression. EC50 values were determined using Prism Graphpad software, with normalization to a positive control and no compound negative control wells.

[2] = Huh-7 CC50 (CellTiter Glo viability); assay type: cell-based, Human; details: human, Huh7 hepatocarcinoma cells
Method: Human hepatocarcinoma 7 (Huh7) cells were maintained in 10% FCS-containing complete DMEM. On day of assay, cells were trypsinized with 0.1% Trypsin-EDTA, washed and cultured in triplicate at 1-2×10^4 cells/well in 96-well plates with compounds dispensed at graded doses (Hewlett-Packard D300 Digital Dispenser). All wells were normalized to 0.25% DMSO. After 48 hours, CellTiter Glo (Promega) was added and incubated for 10 minutes at room temp before reading on a luminometer. % viability curves were calculated against no compound and no cell control wells. CC50 values were determined using Prism Graphpad software.

[3] = system: Dengue 2, New Guinea strain (NGC); assay: DENV-2 moDC EC50 (qPCR of viral RNA in infected moDCs); assay type: cell-based, New Guinea strain (NGC); human moDCs; details: Dengue virus, human moDCs infected with Dengue 2 NGC, MOI=0.1, 48 hours
Method: Example 82. DENV-2 moDC EC50
Human monocyte-derived dendritic cells (moDCs) were derived from CD14+ monocytes (AllCells) cultured in Human Mo-DC Differentiation medium containing GM-CSF and IL-4 (Miltenyi Biotec). On day 7, moDCs were harvested by mechanical disruption, washed and suspended in serum-free RPMI. moDCs were infected with Vero-derived Dengue 2, New Guinea strain (NGC) at a MOI=0.1 for two hours in serum-free RPMI with gentle agitation at 37° C. Cells were washed and resuspended in 10% serum-containing RPMI (Gibco, supplemented with sodium pyruvate, NEAA, Penicillin-Streptomycin). […] were plated in triplicate in 96-well plates with compounds dispensed at graded doses (Hewlett-Packard D300 Digital Dispenser). All wells were normalized to 0.25% DMSO. At 48 hours, cells were washed with 1×PBS and all supernatants removed. Total RNA was extracted using RNEasy 96 plates (Qiagen) and used to generate first-strand cDNA using XLT cDNA 5× Supermix (QuantaBio). cDNA was used as a template in a Taqman qPCR duplex reaction specific to DENV2 viral and GAPDH gene expression. EC50 values were determined using Prism Graphpad software, with normalization to a positive control and no compound negative control wells.

[4] = moDC CC50 (CellTiter Glo viability); assay type: cell-based, Human; details: human, uninfected moDCs
Method: Human monocyte-derived dendritic cells (moDCs) were derived from CD14+ monocytes (AllCells) cultured in Human Mo-DC Differentiation medium containing GM-CSF and IL-4 (Miltenyi Biotec). On day 7, moDCs were harvested by mechanical disruption, washed and cultured in triplicate at […] cells/well in 96-well plates with compounds dispensed at graded doses (Hewlett-Packard D300 Digital Dispenser). All wells were normalized to 0.25% DMSO. After 48 hours, CellTiter Glo (Promega) was added and incubated for 10 minutes at room temp before reading on a luminometer. % viability curves were calculated against no compound and no cell control wells. CC50 values were determined using Prism Graphpad software.

[5] = system: RSV strain A2; assay: RSV HEp-2 EC50 (infectious cytopathic cell protection assay); assay type: cell-based, RSV strain A2; HEp-2 cells; details: human respiratory syncytial virus, HEp-2, 96 h, read-out: RSV Hep-2 EC50
Method: Example 86. RSV HEp-2 EC50
Antiviral activity against RSV is determined using an infectious cytopathic cell protection assay in HEp-2 cells. In this assay, compounds inhibiting viral infection and/or replication produce a cytoprotective effect against the virus-induced cell killing that can be quantified using a cell viability reagent. The techniques used here are novel adaptations of methods described in published literature (Chapman et al., Antimicrob Agents Chemother. 2007, 51(9):3346-53.)
HEp-2 cells are obtained from ATCC (Manassas, VI) and maintained in MEM media supplemented with 10% fetal bovine serum and penicillin/streptomycin. Cells are passaged twice a week and kept at subconfluent stage. Commercial stock of RSV strain A2 (Advanced Biotechnologies, Columbia, MD) is titered before compound testing to determine the appropriate dilution of the virus stock that generates desirable cytopathic effect in HEp-2 cells.
For antiviral tests, HEp-2 cells are grown in large cell culture flasks to near confluency but not fully so. The compounds to be tested are prediluted in DMSO in 384-well compound dilution plates, either in an 8 or 40 sample per plate standardized dose response format. 3-fold serial dilution increments of each test compound are prepared in the plates and test samples are transferred via acoustic transfer apparatus (Echo, Labcyte) at 100 nL per well into cell culture assay 384-well plates. Each compound dilution is transferred in single or quadruplicate samples into dry assay plates, which are stored until assay is ready to go. The positive and negative controls are laid out in opposite on ends of the plate in vertical blocks (1 column).
Subsequently, an infectious mixture is prepared using an appropriate dilution of virus stock previously determined by titration with cells at a density of 50,000/mL and 20 uL/well is added to test plates w/compounds via automation (uFlow, Biotek). Each plate includes negative and positive controls (16 replicates each) to create 0% and 100% virus inhibition standards, respectively. Following the infection with RSV, testing plates are incubated for 4 days in a 37° C. cell culture incubator. After the incubation, a cell viability reagent, Cell TiterGlo (Promega, Madison, WI) is added to the assay plates, which are incubated briefly, and a luminescent readout is measured (Envision, Perkin Elmer) in all the assay plates. The RSV-induced cytopathic effect, percentage inhibition, is determined from the levels of remaining cell viability. […] Various potent anti-RSV tool compounds are used as positive controls for antiviral activity.

[6] = HEp-2 CC50 (cytotoxicity in uninfected HEp-2 cells); assay type: cell-based; details: human, CellTiter Glo
Method: Instead, an uninfected cell mixture at the same density is added at 20 uL/well to plates containing prediluted compounds, also at 100 nL/sample. Assay plates are then incubated for 4 days followed by a cell viability test using the same CellTiter Glo reagent addition and measurement of luminescent readouts. Untreated cell and cells treated at 2 μM puromycin (Sigma, St. Louis, MO) serve as 100% and 0% cell viability control, respectively.

SMILES | EC50 [1] | CC50 at 48 h [2] | EC50 [3] | CC50 at 48 h [4] | EC50 [5] | CC50 at 4 days [6]
CC(C)OC(=O)[C@H](C)N[P@](=O)(OC[C@@]1(CF)O[C@@H](c2ccc3c(N)ncnn23)[C@H](O)[C@@H]1O)Oc1ccccc1 (single isomer, unassigned) [Example 12] | 453 nM | > 25000 nM | 753 nM | > 25000 nM | 1370 nM | > 100000 nM
CCCCCCOC(=O)[C@H](C)N[P@@](=O)(OC[C@@]1(CF)O[C@@H](c2ccc3c(N)ncnn23)[C@H](O)[C@@H]1O)Oc1ccccc1 (single isomer, unassigned) [Example 18] | 384 nM | > 25000 nM | 264 nM | > 10500 nM | 1300 nM | > 100000 nM
CCCCCCOC(=O)[C@H](C)N[P@](=O)(OC[C@@]1(CF)O[C@@H](c2ccc3c(N)ncnn23)[C@H](O)[C@@H]1O)Oc1ccccc1 (single isomer, unassigned) [Example 19] | 416 nM | > 25000 nM | 212 nM | 10900 nM | 722 nM | > 97100 nM
CCC(CC)COC(=O)[C@H](C)N[P@](=O)(OC[C@@]1(CF)O[C@@H](c2ccc3c(=N)n(COP(=O)(O)O)cnn23)[C@H](O)[C@@H]1O)Oc1ccccc1 (single isomer, unassigned) [Example 34] | 165 nM | 6470 nM | 334 nM | 7660 nM |  | 
CCCCOC(=O)[C@H](C)N[P@](=O)(OC[C@@]1(CF)O[C@@H](c2ccc3c(N)ncnn23)[C@H](O)[C@@H]1O)Oc1ccccc1 (single isomer, unassigned) [Example 46] | 386 nM | 10200 nM | 158 nM | 3350 nM | 236 nM | 37100 nM
C[C@H](NP(=O)(OC[C@@]1(CF)O[C@@H](c2ccc3c(N)ncnn23)[C@H](O)[C@@H]1O)Oc1ccccc1)C(=O)OCC(C)(C)C(F)(F)F (stereo partly drawn) [Example 53, 3,3,3-trifluoro-2,2-dimethylpropyl ((((2R,3S,4R,5S)-5-(4-aminopyrrolo[2,1-f][1,2,4]triazin-7-yl)-2-(fluoromethyl)-3,4-dihydroxytetrahydrofuran-2-yl)methoxy)(phenoxy)phosphoryl)-L-alaninate] | 419 nM | 19700 nM |  |  | 565 nM | > 100000 nM
CCC(CC)COC(=O)[C@H](C)N[P@](=O)(OC[C@@]1(CF)O[C@@H](c2ccc3c(N)ncnn23)[C@H](OC(C)=O)[C@@H]1OC(C)=O)Oc1ccccc1 [Example 60, (2R,3S,4S,5S)-5-(4-aminopyrrolo[2,1-f][1,2,4]triazin-7-yl)-2-((((S)-(((S)-1-(2-ethylbutoxy)-1-oxopropan-2-yl)amino)(Phenoxy)phosphoryl)oxy)methyl)-2-(fluoromethyl)tetrahydrofuran-3,4-diyl diacetate] | 1210 nM | > 24800 nM |  |  | 1100 nM | 36200 nM
CCOC(=O)[C@@H](NP(=O)(OC[C@@]1(CF)O[C@@H](c2ccc3c(N)ncnn23)[C@H](O)[C@@H]1O)Oc1ccccc1)C(C)C (stereo partly drawn) [Example 69, ethyl ((((2R,3S,4R,5S)-5-(4-aminopyrrolo[2,1-f][1,2,4]triazin-7-yl)-2-(fluoromethyl)-3,4-dihydroxytetrahydrofuran-2-yl)methoxy)(phenoxy)phosphoryl)-L-valinate] | > 25000 nM | > 25000 nM |  |  | > 50000 nM | > 50000 nM
C[C@H](N[P@](=O)(OC[C@@]1(CF)O[C@@H](c2ccc3c(N)ncnn23)[C@H](O)[C@@H]1O)Oc1ccccc1)C(=O)OC1COC1 [Example 72, oxetan-3-yl ((S)-(((2R,3S,4R,5S)-5-(4-aminopyrrolo[2,1-f][1,2,4]triazin-7-yl)-2-(fluoromethyl)-3,4-dihydroxytetrahydrofuran-2-yl)methoxy)(phenoxy)phosphoryl)-L-alaninate] | 12400 nM | > 25000 nM |  |  | 15600 nM | > 50000 nM
